In US20170202932A1, “METHODS FOR INHIBITING NEURON APOPTOSIS AND NECROSIS” (NEWSOUTH INNOVATIONS PTY LIMITED, priority 2012, published 2017):

Experiments:
[1] = molecular target: T1, recombinant mouse TRPC3c channels (Mus musculus, UniProt Q9QZC1, DEL811-838); assay: Indo-1 ratiometric Ca2+ imaging of CCh-activated Ca2+ entry, HEK293 cells expressing TRPC3c; assay type: cell-based; conditions: genistein 200 μM pre-incubation, n=5, without genistein 575.6±44.2 nM
T1 construct: expressed in transfected cells; host or cells: HEK293 cells, stably transfected (pIRES-DsRed2 vector)
T1 sequence (Q9QZC1 with tags, fused parts or gaps DEL811-838): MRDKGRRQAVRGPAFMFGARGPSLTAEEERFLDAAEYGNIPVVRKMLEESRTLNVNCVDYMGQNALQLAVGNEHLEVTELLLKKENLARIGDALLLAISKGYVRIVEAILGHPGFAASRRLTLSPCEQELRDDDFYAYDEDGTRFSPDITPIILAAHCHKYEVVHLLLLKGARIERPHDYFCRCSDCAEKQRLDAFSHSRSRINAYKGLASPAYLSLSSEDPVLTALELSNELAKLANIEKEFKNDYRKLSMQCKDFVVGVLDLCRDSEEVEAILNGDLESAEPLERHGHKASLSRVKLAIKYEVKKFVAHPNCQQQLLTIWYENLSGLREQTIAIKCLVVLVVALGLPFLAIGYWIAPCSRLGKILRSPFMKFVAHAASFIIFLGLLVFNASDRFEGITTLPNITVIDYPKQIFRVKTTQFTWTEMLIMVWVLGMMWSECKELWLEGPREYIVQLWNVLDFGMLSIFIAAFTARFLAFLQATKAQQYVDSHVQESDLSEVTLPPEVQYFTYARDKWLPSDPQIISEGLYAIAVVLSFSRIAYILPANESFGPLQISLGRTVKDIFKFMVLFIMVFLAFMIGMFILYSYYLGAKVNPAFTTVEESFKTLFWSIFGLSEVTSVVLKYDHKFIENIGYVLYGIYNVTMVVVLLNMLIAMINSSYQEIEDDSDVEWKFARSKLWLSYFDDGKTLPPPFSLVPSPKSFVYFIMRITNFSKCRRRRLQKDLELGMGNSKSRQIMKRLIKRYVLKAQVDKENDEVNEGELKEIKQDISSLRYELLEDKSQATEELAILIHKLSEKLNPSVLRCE
Procedure: (§1) The TRPC3-mediated Ca^2+ entry through two distinct activation pathways was assessed by microfluorometric Ca^2+ imaging: i) Ca^2+ entry via the M3 receptor-PLCB-DAG pathway endogenous to HEK293 cells, using Indo-1 as a Ca^2+ indicator; and ii) Ca^2+ entry via mGluR1-PLCB-DAG through co-expression of the mGluR1, using Fluo-4 as a Ca^2+ indicator.
Cells were grown in DMEM media on 18 mm circular coverslips coated with poly-D-lysine (25 μg/ml) and collagen (25 μg/ml) at 1:1 ratio. The cells were washed with HPSS. The coverslips were then incubated with HPSS and 0.1% pluronic acid, along with either 1 μM Indo-1AM or Fluo-4AM Ca^2+ indicator (Invitrogen, U.S.A.) for an hour prior to the experiment. The cells were then placed into HPSS with 5 μM GdCl3 to block endogenous Ca^2+ entry (added to all superfusions). The M3 AChR-mediated TRPC3 activation was achieved by bath application of carbachol. The mGluR1-mediated TRPC3 activation was achieved by bath application of DHPG.
For Indo-1 experiments, the cells were mounted on a Nikon TMD inverted microscope fitted with an Indo-1 filter set (Nikon Indo-1 filter cube, 485 nm/DM455 nm/405 nm) and illuminated with a mercury lamp. Cells were excited at 350 nm, with dual emission of the field was detected at 410 nm and 480 nm using two photomultiplier tubes, and the ratioed emission was determined in real-time using in-house software. […]

[2] = molecular target: T2, recombinant mouse TRPC3b channels (Mus musculus, UniProt Q9QZC1, R524G); assay: Fluo-4 Ca2+ imaging of DHPG-activated Ca2+ entry, HEK293 cells co-expressing TRPC3b and mGluR1; assay type: cell-based; conditions: genistein 200 μM pre-application, n=6, without genistein 1.56±0.0713
T2 construct: Full length mouse TRPC3 transcripts were obtained by PCR; expressed in transfected cells; host or cells: HEK293 cells stably expressing TRPC3b, additionally transfected with mGluR1-eYFP cDNA
T2 sequence (Q9QZC1 75-910 R524G): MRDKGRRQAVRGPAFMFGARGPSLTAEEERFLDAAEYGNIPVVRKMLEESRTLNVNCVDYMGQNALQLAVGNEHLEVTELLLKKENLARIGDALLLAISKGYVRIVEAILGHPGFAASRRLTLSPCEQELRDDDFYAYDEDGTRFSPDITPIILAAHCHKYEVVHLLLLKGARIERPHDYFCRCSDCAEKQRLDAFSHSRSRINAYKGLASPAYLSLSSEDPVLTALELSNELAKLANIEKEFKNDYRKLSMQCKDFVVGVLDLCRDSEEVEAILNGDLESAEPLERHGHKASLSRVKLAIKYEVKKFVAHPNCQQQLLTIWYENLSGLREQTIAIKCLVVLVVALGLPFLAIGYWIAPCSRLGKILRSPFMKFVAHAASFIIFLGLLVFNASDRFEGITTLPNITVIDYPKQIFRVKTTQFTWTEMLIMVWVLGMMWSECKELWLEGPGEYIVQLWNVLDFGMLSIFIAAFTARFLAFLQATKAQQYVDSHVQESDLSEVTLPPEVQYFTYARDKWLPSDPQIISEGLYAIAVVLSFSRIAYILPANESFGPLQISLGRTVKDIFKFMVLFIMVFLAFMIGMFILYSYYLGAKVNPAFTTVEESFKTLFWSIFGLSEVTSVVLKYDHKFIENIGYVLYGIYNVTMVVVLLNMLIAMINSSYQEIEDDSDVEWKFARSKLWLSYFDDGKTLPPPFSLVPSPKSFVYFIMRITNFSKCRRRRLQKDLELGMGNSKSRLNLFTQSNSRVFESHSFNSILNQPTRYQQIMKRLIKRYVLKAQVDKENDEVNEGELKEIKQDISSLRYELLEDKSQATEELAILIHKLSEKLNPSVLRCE
Procedure: as §1
Cells were grown in DMEM media on 18 mm circular coverslips coated with poly-D-lysine (25 μg/ml) and collagen (25 μg/ml) at 1:1 ratio. The cells were washed with HPSS. The coverslips were then incubated with HPSS and 0.1% pluronic acid, along with either 1 μM Indo-1AM or Fluo-4AM Ca^2+ indicator (Invitrogen, U.S.A.) for an hour prior to the experiment. […]
For Fluo-4 experiments, the cells were mounted on an inverted microscope (DMIL, Leica) with a 20× 0.4NA objective (Leica HCX PL Fluotar), and illuminated with a mercury lamp using a GFP filter (part no. 11504164; excitation 470/40 nm, dichroic 500 nm, emission 525/50 nm) every 5 seconds (Andor iXon+ 885 EMCCD Camera, Ireland) with a gated shutter (Ludl Electronic Products, U.S.A.), controlled via Andor IQ (v1.8.1) software. The images were then analysed using Image J software (NIH, U.S.A.) with individual regions of interest (ROIs) identified for HEK293 cells responding to M3 or mGluR1 agonists with increased Ca^2+ signal. […]

SMILES: O=c1c(-c2ccc(O)cc2)coc2cc(O)cc(O)c12 [genistein, 4′, 5,7-trihydroxyisoflavone]
- peak [Ca2+] on return of extracellular Ca2+ (CCh-activated Ca2+ entry) [1]: 81.9 ± 19.8 nM
- Fluo-4 fluorescence F/F0 (TRPC3-mediated Ca2+ entry after DHPG) [2]: 1.031±0.0144
